Assay results taken from the NIST ThermoML archive (doi:10.1016/j.fluid.2012.10.024).

Assays:
[1] = mn = molality of the nth substance listed, in mol/kg; conditions: 101 kPa, Liquid, Vibrating tube method
[2] = 101.33 kPa, Liquid, Vibrating tube method

OCC1CCCNC1 (configuration not stated) [3-(hydroxymethyl)piperidine] + O
mass density [kg/m3], [1]
Conditions	m1 = 0.0562	m1 = 0.0841	m1 = 0.1205	m1 = 0.1576	m1 = 0.188	m1 = 0.2257	m1 = 0.2728	m1 = 0.3059	m1 = 0.3481
293.15 K	999.04	999.09	999.36	999.67	999.94	1000.2	1000.48	1000.72	1000.95
298.15 K	997.9	997.94	998.2	998.52	998.77	999.02	999.285	999.52	999.74
303.15 K	996.5	996.53	996.79	997.1	997.34	997.58	997.835	998.06	998.27
308.15 K	994.87	994.9	995.16	995.46	995.7	995.93	996.165	996.39	996.59
313.15 K	993.05	993.07	993.32	993.61	993.85	994.07	994.3	994.52	994.71
318.15 K	991.04	991.06	991.3	991.58	991.82	992.02	992.25	992.46	992.64

OCc1ccccn1 [α-picolyl alcohol]
[2]
Conditions	mass density [kg/m3]
291.15 K	1133.6
292.15 K	1133.1
293.15 K	1132.4
295.15 K	1130.7
297.15 K	1129.3
298.15 K	1128.7
299.15 K	1127.7
300.15 K	1127.1
302.15 K	1125.6
303.15 K	1124.8
304.15 K	1124
306.15 K	1122.4
308.15 K	1120.8
310.15 K	1119.4
312.15 K	1118.1
313.15 K	1117.2
315.15 K	1115.6
317.15 K	1114.2
318.15 K	1113.5

OCc1cccnc1 [β-picolyl alcohol]
[2]
Conditions	mass density [kg/m3]
291.15 K	1138.2
292.15 K	1137.5
293.15 K	1136.8
295.15 K	1135.3
297.15 K	1134.1
298.15 K	1133.5
299.15 K	1132.6
300.15 K	1131.8
302.15 K	1130.4
303.15 K	1129.6
304.15 K	1128.9
306.15 K	1127.5
308.15 K	1125.9
310.15 K	1124.7
312.15 K	1123.5
313.15 K	1122.6
315.15 K	1121.2
317.15 K	1120
318.15 K	1119.3
